Data as given in patent US11584765B2 (priority 2017, dated 2023).

Each molecule was assayed on C57BL/6 mice (assay: animal or person). Conditions: Mus musculus, sc, 0.5 h, s.c. administration, 30 min, 55° C. water, read-out: ED50 (mg/kg) at 30 min on C57BL/6 mice in Warm-water Tail-flick Test.
Format: in vivo
With `CC(=O)Nc1ccc(CN2CCC(CCc3ccccc3)(c3cc(C)co3)C2)cc1` (stereo not drawn) [Compound 203, N-(4-((3-(4-methylfuran-2-yl)-3-phenethylpyrrolidin-1-yl)methyl)phenyl)acetamide] the ED50 was over 10 mg/kg.
In the case of `CCOC[C@@]1(CCc2ccccc2)CCN(Cc2ccc(NC(C)=O)cc2)C1` [Compound 204, (S)-N-(4-((3-(ethoxymethyl)-3-phenethylpyrrolidin-1-yl)methyl)phenyl)acetamide], the ED50 is reported as over 10 mg/kg.
Molecule `CCOC[C@]1(CCc2ccccc2)CCN(Cc2ccc(NC(C)=O)cc2)C1` [Compound 205, (R)-N-(4-((3-(ethoxymethyl)-3-phenethylpyrrolidin-1-yl)methyl)phenyl)acetamide] has an ED50 of under 10 mg/kg.
In the case of `CCOCC1(CCc2ccccc2)CCN(Cc2ccc(Nc3cnccn3)cc2)C1` (stereo not drawn) [Compound 206, N-(4-((3-(ethoxymethyl)-3-phenethylpyrrolidin-1-yl)methyl)phenyl)pyrazin-2-amine], the ED50 is reported as over 10 mg/kg.
`CCOCC1(CCc2ccccc2)CCN(Cc2ccc(Nc3ncccn3)cc2)C1` (stereo not drawn) [Compound 207, N-(4-((3-(ethoxymethyl)-3-phenethylpyrrolidin-1-yl)methyl)phenyl)pyri-midin-2-amine] gave an ED50 of over 10 mg/kg.
`CC(=O)Nc1ccc(CN2CCC(CCc3ccccc3)(C3CCCCO3)C2)cc1` (stereo not drawn) [Compound 208, N-(4-((3-phenethyl-3-(tetrahydro-2H-pyran-2-yl)pyrrolidin-1-yl)methyl)phenyl)acetamide] gave an ED50 of under 10 mg/kg.
`c1ccc(CCC2(C3CCCCO3)CCN(Cc3ccccc3-c3cccs3)C2)cc1` (stereo not drawn) [Compound 209, 3-phenethyl-3-(tetrahydro-2H-pyran-2-yl)-1-(2-(thiophen-2-yl)benzyl)pyrrolidine] gave an ED50 of over 10 mg/kg.
With `Clc1ccccc1CN1CCC(CCc2ccccc2)(C2CCCCO2)C1` (stereo not drawn) [Compound 210, 1-(2-chlorobenzyl)-3-phenethyl-3-(tetrahydro-2H-pyran-2-yl)pyrrolidine] the ED50 was over 10 mg/kg.
For `Cc1nc(CN2CCC(CCc3ccccc3)(C3CCCCO3)C2)cs1` (stereo not drawn) [Compound 211, 2-methyl-4-((3-phenethyl-3-(tetrahydro-2H-pyran-2-yl)pyrrolidin-1-yl)methyl)thiazole], the ED50 was over 10 mg/kg.
For `c1ccc(CCC2(C3CCCO3)CCN(Cc3cn[nH]c3)C2)cc1` (stereo not drawn) [Compound 212, 4-((3-phenethyl-3-(tetrahydrofuran-2-yl)pyrrolidin-1-yl)methyl)-1H-pyrazole], the ED50 was over 10 mg/kg.
For `Cn1ccc(CN2CCC(CCc3ccccc3)(C3CCCO3)C2)n1` (stereo not drawn) [Compound 214, 1-methyl-3-((3-phenethyl-3-(tetrahydrofuran-2-yl)pyrrolidin-1-yl)methyl)-1H-pyrazole], the ED50 was over 10 mg/kg.
Work on `Cn1nccc1CN1CCC(CCc2ccccc2)(C2CCCO2)C1` (stereo not drawn) [Compound 215, l-methyl-5-((3-phenethyl-3-(tetrahydrofuran-2-yl)pyrrolidin-1-yl)methyl)-1H-pyrazole] yielded an ED50 of under 10 mg/kg.
`CC(=O)Nc1ccc(CN2CCC(CCc3ccccc3)(C3OCC=C3C)C2)cc1` (stereo not drawn) [Compound 216, N-(4-((3-(3-methyl-2,5-dihydrofuran-2-yl)-3-phenethylpyrrolidin-1-yl)methyl)phenyl)acetamide] gave an ED50 of under 10 mg/kg.
Work on `CCOCC1(CCc2ccccc2)CCN(Cc2cnn(C)c2)C1` (stereo not drawn) [Compound 217, 4-((3-(ethoxymethyl)-3-phenethylpyrrolidin-1-yl)methyl)-1-methyl-1H-pyrazole] yielded an ED50 of under 10 mg/kg.
In the case of `c1ccc(CCC2(C3CCCO3)CCN(Cc3cccc(-c4ccco4)c3)C2)cc1` (stereo not drawn) [Compound 219], the ED50 is reported as over 10 mg/kg.
Molecule `c1ccc(CCC2(C3CCCO3)CCN(Cc3ccc(-c4ccco4)cc3)C2)cc1` (stereo not drawn) [Compound 220] has an ED50 of over 10 mg/kg.
`Cn1cncc1CN1CCC(CCc2ccccc2)(C2CCCO2)C1` (stereo not drawn) [Compound 221, 1-methyl-5-((3-phenethyl-3-(tetrahydrofuran-2-yl)pyrrolidin-1-yl)methyl)-1H-imidazole] showed an ED50 of over 10 mg/kg.
`Cn1ccnc1CN1CCC(CCc2ccccc2)(C2CCCO2)C1` (stereo not drawn) [Compound 222, l-methyl-2-((3-phenethyl-3-(tetrahydrofuran-2-yl)pyrrolidin-1-yl)methyl)-1H-imidazole] gave an ED50 of over 10 mg/kg.
With `COc1ccsc1CN1CCC(CCc2ccccc2)(C2CCCO2)C1` (stereo not drawn) [Compound 223, 1-((3-methoxythiophen-2-yl)methyl)-3-phenethyl-3-(tetrahydrofuran-2-yl)pyrrolidine] the ED50 was over 10 mg/kg.
`Cn1ccc(CN2CCC(CCc3ccccc3)(C3CCCO3)C2)c1` (stereo not drawn) [Compound 224, 1-methyl-3-((3-phenethyl-3-(tetrahydrofuran-2-yl)pyrrolidin-1-yl)methyl)-1H-pyrrole] gave an ED50 of over 10 mg/kg.
In the case of `c1ccc(CCC2(C3CCCO3)CCN(Cc3ccccn3)C2)cc1` (stereo not drawn) [Compound 225, 2-((3-phenethyl-3-(tetrahydrofuran-2-yl)pyrrolidin-1-yl)methyl)pyridine], the ED50 is reported as over 10 mg/kg.
Work on `c1ccc(CCC2(C3CCCO3)CCN(Cc3cccnc3)C2)cc1` (stereo not drawn) [Compound 226, 3-((3-phenethyl-3-(tetrahydrofuran-2-yl)pyrrolidin-1-yl)methyl)pyridine] yielded an ED50 of under 10 mg/kg.
For `Cn1cccc1CN1CCC(CCc2ccccc2)(C2CCCO2)C1` (stereo not drawn) [Compound 227, 1-methyl-2-((3-phenethyl-3-(tetrahydrofuran-2-yl)pyrrolidin-1-yl)methyl)-1H-pyrrole], the ED50 was over 10 mg/kg.
Work on `c1ccc(CCC2(C3CCCO3)CCN(Cc3ccnn3-c3ccccc3)C2)cc1` (stereo not drawn) [Compound 228, 5-((3-phenethyl-3-(tetrahydrofuran-2-yl)pyrrolidin-1-yl)methyl)-1-phenyl-1H-pyrazole] yielded an ED50 of over 10 mg/kg.
`c1ccc(CCC2(C3CCCO3)CCN(CC3CCCO3)C2)cc1` (stereo not drawn) [Compound 229, 3-phenethyl-3-(tetrahydrofuran-2-yl)-1-((tetrahydrofuran-2-yl)methyl)pyrrolidine] gave an ED50 of over 10 mg/kg.
For `c1ccc(CCC2(C3CCCO3)CCN(CC3CCOC3)C2)cc1` (stereo not drawn) [Compound 230, 3-phenethyl-3-(tetrahydrofuran-2-yl)-1-((tetrahydrofuran-3-yl)methyl)pyrrolidine], the ED50 was over 10 mg/kg.
Molecule `Cc1ncc(CN2CCC(CCc3ccccc3)(C3CCCO3)C2)s1` (stereo not drawn) [Compound 231, 2-methyl-5-((3-phenethyl-3-(tetrahydrofuran-2-yl)pyrrolidin-1-yl)methyl)thiazole] has an ED50 of under 10 mg/kg.
With `CCOCC1(CCc2ccsc2)CCN(Cc2cnn(C)c2)CC1` [Compound 232, 4-(ethoxymethyl)-1-((1-methyl-1H-pyrazol-4-yl)methyl)-4-(2-(thiophen-3-yl)ethyl)piperidine] the ED50 was under 10 mg/kg.
Work on `CCOCC1(CCc2cccs2)CCN(Cc2cnn(C)c2)CC1` [Compound 233, 4-(ethoxymethyl)-1-((1-methyl-1H-pyrazol-4-yl)methyl)-4-(2-(thiophen-2-yl)ethyl)piperidine] yielded an ED50 of under 10 mg/kg.
Molecule `CCOC[C@]1(CCc2ccccc2)CCN(Cc2cnn(C)c2)C1` [Compound 234, (R)-4-((3-(ethoxymethyl)-3-phenethylpyrrolidin-1-yl)methyl)-1-methyl-1H-pyrazole] has an ED50 of over 10 mg/kg.
Molecule `CCOC[C@@]1(CCc2ccccc2)CCN(Cc2cnn(C)c2)C1` [Compound 235, (S)-4-((3-(ethoxymethyl)-3-phenethylpyrrolidin-1-yl)methyl)-1-methyl-1H-pyrazole] has an ED50 of under 10 mg/kg.
With `c1ccc(CCC2(C3CCCO3)CCN(Cc3ccncc3)C2)cc1` (stereo not drawn) [Compound 236, 4-((3-phenethyl-3-(tetrahydrofuran-2-yl)pyrrolidin-1-yl)methyl)pyridine] the ED50 was over 10 mg/kg.
`c1ccc(CCC2(C3CCCO3)CCN(Cc3cncnc3)C2)cc1` (stereo not drawn) [Compound 237, 5-((3-phenethyl-3-(tetrahydrofuran-2-yl)pyrrolidin-1-yl)methyl)pyrimidine] gave an ED50 of over 10 mg/kg.
With `c1ccc(CCC2(C3CCCO3)CCN(Cc3cnccn3)C2)cc1` (stereo not drawn) [Compound 238, 2-((3-phenethyl-3-(tetrahydrofuran-2-yl)pyrrolidin-1-yl)methyl)pyrazine] the ED50 was over 10 mg/kg.
Work on `CC(=O)Nc1ccc(CN2CCC(CCc3ccccc3)(COCc3ccccc3)C2)cc1` (stereo not drawn) [Compound 239, N-(4-((3-(benzyloxymethyl)-3-phenethylpyrrolidin-1-yl)methyl)phenyl)acetamide] yielded an ED50 of over 10 mg/kg.
`Cn1cc(CN2CCC(CCc3ccccc3)(COCc3ccccc3)C2)cn1` (stereo not drawn) [Compound 240, 4-((3-(benzyloxymethyl)-3-phenethylpyrrolidin-1-yl)methyl)-1-methyl-1H-pyrazole] gave an ED50 of over 10 mg/kg.
With `Fc1cncc(CN2CCC(CCc3ccccc3)(C3CCCO3)C2)c1` (stereo not drawn) [Compound 241, 3-fluoro-5-((3-phenethyl-3-(tetrahydrofuran-2-yl)pyrrolidin-1-yl)methyl)pyridine] the ED50 was over 10 mg/kg.
With `COc1cncc(CN2CCC(CCc3ccccc3)(C3CCCO3)C2)c1` (stereo not drawn) [Compound 242, 3-methoxy-5-((3-phenethyl-3-(tetrahydrofuran-2-yl)pyrrolidin-1-yl)methyl)pyridine] the ED50 was over 10 mg/kg.
`Clc1cncc(CN2CCC(CCc3ccccc3)(C3CCCO3)C2)c1` (stereo not drawn) [Compound 243, 3-chloro-5-((3-phenethyl-3-(tetrahydrofuran-2-yl)pyrrolidin-1-yl)methyl)pyridine] gave an ED50 of over 10 mg/kg.
`CCOCC1(CCc2ccccc2)CCN(Cc2cccnc2)CC1` [Compound 244, 3-((4-(ethoxymethyl)-4-phenethylpiperidin-1-yl)methyl)pyridine] gave an ED50 of under 10 mg/kg.
`CCOCC1(CCc2ccccc2)CCN(Cc2cnn(C)c2)CC1` [Compound 245, 4-(ethoxymethyl)-1-((1-methyl-1H-pyrazol-4-yl)methyl)-4-phenethylpiperidine] showed an ED50 of under 10 mg/kg.
`CCOCC1(CCc2ccccc2)CCN(Cc2ccnn2C)CC1` [Compound 246, 4-(ethoxymethyl)-1-((1-methyl-1H-pyrazol-5-yl)methyl)-4-phenethylpiperidine] showed an ED50 of over 10 mg/kg.
`CCOCC1(CCc2cccs2)CCN(Cc2cccnc2)CC1` [Compound 247, 3-((4-(ethoxymethyl)-4-(2-(thiophen-2-yl)ethyl)piperidin-1-yl)methyl)pyridine] showed an ED50 of under 10 mg/kg.
With `c1ccc(CCC2(C3CCCO3)CCN(CCc3cccnc3)C2)cc1` (stereo not drawn) [Compound 248, 3-(2-(3-phenethyl-3-(tetrahydrofuran-2-yl)pyrrolidin-1-yl)ethyl)pyridine] the ED50 was over 10 mg/kg.
In the case of `CCOCC1(CCc2ccccc2)CCN(Cc2cccnc2)C1` (stereo not drawn) [Compound 249, 3-((3-(ethoxymethyl)-3-phenethylpyrrolidin-1-yl)methyl)pyridine], the ED50 is reported as under 10 mg/kg.
